Experimental data published in ChEMBL document CHEMBL1135875, “Hydrophobic modifications at 1-phosphate of inositol 1,4,5-trisphosphate analogues enhance receptor binding” (Bioorg Med Chem Lett, 2002).

Assays:
[1] = target: T1, Inositol 1,4,5-trisphosphate-gated calcium channel ITPR1 (Homo sapiens, UniProt Q14643); experiment: Dissociation constant using IP3-binding domain (IBD) of human Type 1 inositol 1,4,5-trisphosphate receptor
[2] = target: T1, Inositol 1,4,5-trisphosphate-gated calcium channel ITPR1; experiment: Affinity towards IP3-binding domain (IBD) of human Type 1 inositol 1,4,5-trisphosphate receptor was determined relative to compound 2

T1 sequence (Q14643 whole entry, the tested form may be a part): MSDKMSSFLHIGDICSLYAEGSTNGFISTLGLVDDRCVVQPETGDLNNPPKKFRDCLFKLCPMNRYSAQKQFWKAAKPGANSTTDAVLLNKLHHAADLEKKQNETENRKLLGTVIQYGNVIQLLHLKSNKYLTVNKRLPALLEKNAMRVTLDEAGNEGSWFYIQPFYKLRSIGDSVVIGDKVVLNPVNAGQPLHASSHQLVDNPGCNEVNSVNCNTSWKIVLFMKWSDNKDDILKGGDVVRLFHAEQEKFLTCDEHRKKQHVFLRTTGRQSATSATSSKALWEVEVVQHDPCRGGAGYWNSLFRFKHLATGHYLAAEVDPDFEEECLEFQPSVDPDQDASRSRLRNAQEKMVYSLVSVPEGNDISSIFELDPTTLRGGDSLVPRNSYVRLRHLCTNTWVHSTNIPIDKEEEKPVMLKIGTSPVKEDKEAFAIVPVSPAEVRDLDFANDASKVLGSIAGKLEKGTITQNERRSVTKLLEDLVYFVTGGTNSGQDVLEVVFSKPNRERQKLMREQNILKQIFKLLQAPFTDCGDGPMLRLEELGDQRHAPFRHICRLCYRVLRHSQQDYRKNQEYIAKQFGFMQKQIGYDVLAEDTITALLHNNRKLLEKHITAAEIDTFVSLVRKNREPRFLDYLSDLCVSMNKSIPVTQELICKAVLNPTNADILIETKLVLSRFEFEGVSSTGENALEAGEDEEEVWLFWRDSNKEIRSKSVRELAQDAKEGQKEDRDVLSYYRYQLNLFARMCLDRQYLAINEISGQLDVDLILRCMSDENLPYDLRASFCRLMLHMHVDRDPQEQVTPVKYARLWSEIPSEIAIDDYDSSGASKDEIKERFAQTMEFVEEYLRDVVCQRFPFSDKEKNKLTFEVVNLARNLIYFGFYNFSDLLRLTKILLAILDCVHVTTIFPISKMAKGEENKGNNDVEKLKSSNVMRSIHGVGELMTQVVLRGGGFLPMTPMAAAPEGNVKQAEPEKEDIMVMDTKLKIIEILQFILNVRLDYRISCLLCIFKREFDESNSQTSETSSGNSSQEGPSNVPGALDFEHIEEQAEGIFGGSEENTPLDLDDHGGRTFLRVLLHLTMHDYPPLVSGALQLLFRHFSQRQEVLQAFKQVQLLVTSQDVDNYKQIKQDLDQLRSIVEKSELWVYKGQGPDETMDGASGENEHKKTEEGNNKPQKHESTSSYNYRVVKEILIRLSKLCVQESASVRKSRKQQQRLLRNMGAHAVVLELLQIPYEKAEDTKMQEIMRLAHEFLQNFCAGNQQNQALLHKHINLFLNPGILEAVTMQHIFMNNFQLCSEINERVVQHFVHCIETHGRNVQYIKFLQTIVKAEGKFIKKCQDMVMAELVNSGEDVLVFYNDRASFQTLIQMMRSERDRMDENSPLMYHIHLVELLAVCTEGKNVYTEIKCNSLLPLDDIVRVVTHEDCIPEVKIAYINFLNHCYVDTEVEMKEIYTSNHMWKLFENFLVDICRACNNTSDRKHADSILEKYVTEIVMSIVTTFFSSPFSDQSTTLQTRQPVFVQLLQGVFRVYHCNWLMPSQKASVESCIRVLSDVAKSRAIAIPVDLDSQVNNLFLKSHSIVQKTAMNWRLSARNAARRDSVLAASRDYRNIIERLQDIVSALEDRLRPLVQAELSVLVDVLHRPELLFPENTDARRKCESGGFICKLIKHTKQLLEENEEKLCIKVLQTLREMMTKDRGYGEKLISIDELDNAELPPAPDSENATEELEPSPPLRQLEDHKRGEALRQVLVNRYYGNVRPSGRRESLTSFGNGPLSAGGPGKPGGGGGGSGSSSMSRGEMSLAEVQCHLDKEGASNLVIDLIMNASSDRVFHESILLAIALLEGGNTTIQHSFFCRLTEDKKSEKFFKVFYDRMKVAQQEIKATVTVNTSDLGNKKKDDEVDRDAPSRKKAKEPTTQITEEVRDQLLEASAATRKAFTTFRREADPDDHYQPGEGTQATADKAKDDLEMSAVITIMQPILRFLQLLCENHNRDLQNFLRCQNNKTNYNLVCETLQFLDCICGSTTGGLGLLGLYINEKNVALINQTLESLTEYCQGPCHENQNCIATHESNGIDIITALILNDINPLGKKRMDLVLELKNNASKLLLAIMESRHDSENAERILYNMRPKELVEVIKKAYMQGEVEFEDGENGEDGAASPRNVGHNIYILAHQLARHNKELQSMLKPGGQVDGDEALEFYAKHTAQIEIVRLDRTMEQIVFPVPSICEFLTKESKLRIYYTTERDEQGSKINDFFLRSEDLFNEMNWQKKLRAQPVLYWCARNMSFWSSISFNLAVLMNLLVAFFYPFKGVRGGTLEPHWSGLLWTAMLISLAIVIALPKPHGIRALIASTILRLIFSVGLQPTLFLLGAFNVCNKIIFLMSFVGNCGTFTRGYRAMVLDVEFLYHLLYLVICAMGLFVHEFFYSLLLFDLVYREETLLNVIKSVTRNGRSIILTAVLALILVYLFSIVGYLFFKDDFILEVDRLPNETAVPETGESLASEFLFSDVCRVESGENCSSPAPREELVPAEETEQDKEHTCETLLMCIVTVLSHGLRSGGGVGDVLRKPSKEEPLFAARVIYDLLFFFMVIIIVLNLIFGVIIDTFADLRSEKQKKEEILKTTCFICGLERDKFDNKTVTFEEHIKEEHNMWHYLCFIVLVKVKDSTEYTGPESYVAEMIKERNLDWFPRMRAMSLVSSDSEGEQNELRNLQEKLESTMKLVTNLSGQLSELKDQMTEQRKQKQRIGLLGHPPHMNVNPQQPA

Kd [1] [µM]	Relative affinity [2]	SMILES
1.5	1	NCCCOP(=O)(O)O[C@@H]1[C@H](O)[C@H](O)[C@@H](OP(=O)(O)O)[C@H](OP(=O)(O)O)[C@H]1O
0.62	2.4	CN(C)c1ccc2c(-c3ccc(C(=O)NCCCOP(=O)(O)O[C@@H]4[C@H](O)[C@H](O)[C@@H](OP(=O)(O)O)[C@H](OP(=O)(O)O)[C@H]4O)cc3C(=O)[O-])c3ccc(=[N+](C)C)cc-3oc2c1
–	950	CN(C)c1ccc(C(=C2C=CC(=[N+](C)C)C=C2)c2ccc(C(=O)NCCCOP(=O)(O)O[C@@H]3[C@H](O)[C@H](O)[C@@H](OP(=O)(O)O)[C@H](OP(=O)(O)O)[C@H]3O)cc2)cc1
